Our source for the Kd values is article PMC12593347, “Profiling Class-Wide Bioactivities of Flavonoids While Minimizing Compound-Specific Effects Using an Equimolar Mixture Strategy” (Journal of Agricultural and Food Chemistry, 2025).

In this test the target is T1, amyloid-β1–42 (Aβ1–42) (Homo sapiens, UniProt P05067).
T1 construct: gene APP; Aβ1–42 monomers, biotinylated, immobilized on streptavidin biosensor
As to the kind of experiment: biolayer interferometry (Octet R8), steady-state […] fit. The format is binding.

T1 sequence (P05067 672-713): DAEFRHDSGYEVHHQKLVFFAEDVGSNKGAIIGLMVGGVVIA

A word on the Kd: it is the constant that tells how readily two partners part at equilibrium. A lower Kd goes with tighter binding. `O=C(O[C@@H]1Cc2c(O)cc(O)cc2O[C@@H]1c1cc(O)c(O)c(O)c1)c1cc(O)c(O)c(O)c1` [EGCG] registered a Kd of 93 µM.
